Laboratory results taken from patent US20120009131A1, “METHOD FOR PREVENTING OR TREATING AMYLOID BETA PEPTIDE-ASSOCIATED DISEASES OR CONDITIONS, AND METHOD FOR INHIBITING FORMATION, ACCUMULATION OR AGGREGATION OF AMYLOID BETA PEPTIDES” (Sinphar Tian-Li Pharmaceutical Co., Ltd. (Hangzhou), priority 2010, published 2012).
Marks after values point to notes of the source that are not given here.

Assays:
Human Aβ1-42 = Human Aβ1-42 (Homo sapiens, UniProt P05067); test: Aβ1-42 oligomerization (thioflavin T fluorescence); assay type: biochemical; details: 50 μg/ml, 24 hours
Method: Dried Human Aβ1-42 was taken out from the refrigerator and equilibrated to room temperature. Aβ1-42 was dissolved in 1,1,1,3,3,3-Hexa-fluro-2-propanol (HFIP) to a concentration of 1 mM, and was then placed at room temperature for one hour. The Aβ1-42/HFIP solution was aliquoted by Hamilton syringe, and was then dried under a stream of nitrogen gas, followed by storing at a temperature of −20[…]. Aβ1-42 treated with HFIP was dissolved in PBS, and was vibration-incubated with treatment of each test sample at a concentration of 50 μg/ml and at 4[…] for 24 hours to prepare Aβ1-42 oligomers. The level of Aβ1-42 oligomerization was analyzed by thioflavin T fluorescence (Ex=450 nm, Em=482 nm).

[1] = tested on: extracellular Aβ1-40 accumulation in SH-SY5Y cells; test: Effect on extracellular Aβ1-40 accumulation (Human Aβ1-40 immunoassay of the medium); assay type: cell-based; details: 50 μg/ml, 24 hours, mean±SD
Method: (§1) Wild-type human neuroblastoma cells (SH-SY5Y) were cultured in Eagle's Minimum essential Medium (EMEM)/Ham's F12 medium (1:1 mixture) (containing 10% FBS, 10 units/ml penicillin, 10 μg/ml Streptomycin). Wild-type mouse neuroblastoma Neuro-2a cells were cultured in minimum essential medium (MEM) (containing 10% FBS, 10 units/ml penicillin, 10 μg/ml Streptomycin).
The medium of the wild-type human neuroblastoma SH-SY5Y cells in Example 1 were switched into chemical defined medium (EMEM/F12 medium (Cat. No. 12500-062), Hepes 5 mM, Glucose 0.6%, NaHCO3 3 mM, Glutamine 2.5 mM, Insulin 25 μg/ml, Transferin 100 μg/ml, Progestrone 20 nM, Putrescine 60 μM, Sodium selenite 30 nM, Heparin 2 μg/ml). Each well contained 1×10^5 SH-SY5Y cells in 300 μl of culture medium. Thirty minutes later, each well was treated with the test samples A-D given in Table 1 respectively at a concentration of 50 μg/ml for 24 hours. After that, the level of Aβ1-40 in the medium of each well was analyzed by Human Aβ1-40 immunoassay kits (Catalog #KHB3482 Invitrogen).
Human neuroblastoma SH-SY5Y cells cause extracellular accumulation of Aβ. […] The results were shown in mean±standard deviation (SD) form. Significant difference between the Vehicle control group and the test sample-treated groups were indicated by *., P<0.05, *.*, P<0.01, and. ***., P<0.001.

[2] = tested on: SD rats infused intracerebroventricularly with Aβ1-42; test: Acetylcholine and choline levels in brain cortex and hippocampus of rats; assay type: in vivo, rat; details: oral
Method: (§2) The rats were anesthetized for implantation of an infusion cannula into the left cerebral ventricle thereof. After sewing up the incisions, the rats were returned to their cages. FIG. 7 illustrates the experimental schedule for animal studies. The exploration behavior tests were carried out on day 7, the passive avoidance learning tests were carried out on day 8 and 9, the water maze tests were carried on day 10 to 13, and the probe tests were carried out on day 14, after the start of Aβ1-42 infusion. […] The test samples were administered orally to the rats, 1 hour before the tests (i.e., the exploration behavior tests, the passive avoidance learning tests, and the water maze tests) throughout the experimental period. […] All the test samples were prepared freshly with deionized distilled water (ddH2O) every day, and were administered orally by stomach tube.
(§3) Significant difference between the Aβ1-42 control group and the other experimental groups were indicated by *., P<0.05, *.*, P<0.01, and. ***., P<0.001.
(§4) After the water maze performance tests, all rats were decapitated and their brains were rapidly removed from the skull. […]

[3] = tested on: SD rats infused intracerebroventricularly with Aβ1-42; test: Dopamine (DA) and metabolites DOPAC and HVA levels in brain cortex and hippocampus of rats; assay type: in vivo, rat; details: for DA level / DOPAC level / HVA level: mean±SD
Method: as §2, §3
After the water maze performance tests, all rats were decapitated and their brains were rapidly removed from the skull. According to Glowinski and Iversen, the brain cortex and hippocampus were separated, and then each cortex and hippocampus were weighed and were homogenized by addition of 50 mM Na-phosphate buffer (pH 7.8) for analyzing the concentrations of neurotransmitters and the levels of enzymes.

[4] = tested on: Aβ-degrading enzymes released by Neuro-2a cells; test: Effect on extracellular Aβ1-40 degradation in Neuro-2a conditioned medium; assay type: biochemical, mouse; details: Neuro-2a medium, 50 μg/ml, 10 ng synthetic Aβ1-40, 24 hours
Method: as §1
Mouse neuroblastoma Neuro-2a cells will release Aβ-degrading enzymes in the chemical defined medium, but will not produce detectable amount of Aβ in the medium. The Neuro 2a cells were incubated in the medium for 24 hours, and then the medium were drawn out without cells. The medium were individually treated with the test samples A-D at a concentration of 50 μg/ml and 10 ng synthetic Aβ1-40 for 24 hours, and then the effects of each test sample on promoting the enzymes in the medium were examined. The remaining Aβ1-40 amount of each well was analyzed by Human Aβ1-40 Immunoassay kits (Catalog #KHB3482 Invitrogen), expressing as percentage, as compared with the Vehicle control group.

[5] = tested on: Aβ1-42 plaques in rat brain; test: Immunohistochemical staining for Aβ1-42 in the hippocampus section of rat's brain; assay type: in vivo; details: oral
Excerpt: In the following Examples 7 to 11 illustrated below, male Sprague-Dawley (SD) rats, weighed 250-300 gm, were obtained from BioLASCO Taiwan Co. Ltd. The SD rats were infused intracerebroventricularly with Aβ1-42 to cause neuronal damage, affecting their memory and learning ability, and leading to form senile plaque-like aggregates in the rat's brain, being used as an animal model of Alzheimer's disease. Alzheimer's disease animal model induced by Aβ can be referred to, for example, Nabeshima et al. (Neuroscience Letters (1994) 170: 63-66)(British Journal of Pharmacology (1999) 126: 235-244).
The rats were anesthetized for implantation of an infusion cannula into the left cerebral ventricle thereof. After sewing up the incisions, the rats were returned to their cages. FIG. 7 illustrates the experimental schedule for animal studies. The exploration behavior tests were carried out on day 7, the passive avoidance learning tests were carried out on day 8 and 9, the water maze tests were carried on day 10 to 13, and the probe tests were carried out on day 14, after the start of Aβ1-42 infusion. The Sham group was treated with TFA solution (64.9% sterile ddH2O, 35% acetonitrile, 0.1% trifluoroacetic acid), and the other experimental groups were treated with 0.5 μl of Aβ1-42 dissolved in TFA solution per hour, corresponding to 300 pmol/12 μl of Aβ1-42 (Tocris 1428; MW: 4514.08) per day. The test samples were administered orally to the rats, 1 hour before the tests (i.e., the exploration behavior tests, the passive avoidance learning tests, and the water maze tests) throughout the experimental period. […] All the test samples were prepared freshly with deionized distilled water (ddH2O) every day, and were administered orally by stomach tube.
All rats were sacrificed and their brains were removed, cut into slices and stained. Neurotransmitters were also tested.
After the water maze performance tests, all rats were decapitated and their brains were rapidly removed from the skull, and then immunohistochemical staining for Aβ1-42 in the hippocampus section of their brains. […]

[6] = tested on: SD rats infused intracerebroventricularly with Aβ1-42; test: Water maze spatial performance and probe tests in Aβ1-42-infused rats; assay type: in vivo, rat; details: oral
Method: as §2, §3

[7] = tested on: SD rats infused intracerebroventricularly with Aβ1-42; test: Exploration behavior test in Aβ1-42-infused rats; assay type: in vivo, rat; details: oral
Method: as §2, §3

acetylcholinesterase = test: Acetylcholinesterase activities in brain cortex and hippocampus of rats; assay type: in vivo, rat; details: oral; D 2.5 and 5 mg/kg, Aricept 0.75 mg/kg
Method: as §2, §3, §4

[8] = tested on: SD rats infused intracerebroventricularly with Aβ1-42; test: Passive avoidance response test in Aβ1-42-infused rats; assay type: in vivo, rat; details: oral
Method: as §2, §3

[9] = D 2.5 and 5 mg/kg, Aricept 0.75 mg/kg
[10] = brain hippocampus, oral 2.5 mg/kg
[11] = brain hippocampus, oral 5 mg/kg

Human Aβ1-42, sequence (P05067 672-713 limits assumed): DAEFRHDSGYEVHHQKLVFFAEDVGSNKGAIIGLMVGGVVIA

C[C@@H]1O[C@@H](O[C@@H]2[C@@H](O)[C@H](OCCc3ccc(O)c(O)c3)O[C@H](CO)[C@H]2OC(=O)/C=C/c2ccc(O)c(O)c2)[C@H](O)[C@H](O)[C@H]1O [Test sample C, Acteoside, reference compound]
activity on inhibiting Aβ1-42 oligomerization (in words) (Human Aβ1-42): possess activities on inhibiting Aβ1-42 oligomerization
reduction of the level of Aβ1-40 in the medium in comparison with the Vehicle control group [1]: about 20%

Isoacteoside [Test sample D]
acetylcholine levels in the brain cortex and hippocampus ([2]; 5 mg/kg): particularly potent
acetylcholine levels in the brain cortex and hippocampus [2, 9]: reverse the decrease in acetylcholine levels
DA level ([3]; brain cortex, oral 2.5 mg/kg): 2.67 ± 0.43
DOPAC level ([3]; brain cortex, oral 2.5 mg/kg): 12.53 ± 3.33
HVA level ([3]; brain cortex, oral 2.5 mg/kg): 2.92 ± 0.58
DA level ([3]; brain cortex, oral 5 mg/kg): 3.84 ± 0.47*
DOPAC level ([3]; brain cortex, oral 5 mg/kg): 13.80 ± 3.03
HVA level ([3]; brain cortex, oral 5 mg/kg): 2.74 ± 0.69
DA level [3, 10]: 5.41 ± 1.30***
DOPAC level [3, 10]: 4.98 ± 1.15
HVA level [3, 10]: 3.68 ± 0.46
DA level [3, 11]: 4.07 ± 0.59***
DOPAC level [3, 11]: 4.13 ± 0.45
HVA level [3, 11]: 3.29 ± 0.25
DA levels in the cortex and hippocampus (in words) ([3]; oral, D 2.5 and 5 mg/kg, Aricept 0.75 mg/kg): reverse the decrease in DA levels
Aβ1-40 degradation (remaining Aβ1-40 amount) [4]: does not accelerate Aβ degradation
activity on inhibiting Aβ1-42 oligomerization (in words) (Human Aβ1-42): possess activities on inhibiting Aβ1-42 oligomerization
inhibition of Aβ1-42 oligomerization (Human Aβ1-42): 98.93±1.70%
plaques found in the brain of the rat ([5]; 2.5 mg/kg): few plaques
plaques found in the brain of the rat ([5]; 5 mg/kg): almost no plaques
plaques in the brain, compared with Aricept-treated rat ([5]; D 2.5 and 5 mg/kg vs Aricept 0.75 mg/kg): less than that in the brain of the rat treated with Aricept
water maze spatial performance and probe test, compared with Aricept 0.75 mg/kg ([6]; 5 mg/kg): shows better effects than Aricept 0.75 mg/kg
deficits of the water maze spatial performance and the probe test [6, 9]: can be improved
exploratory activities, compared with Aricept 0.75 mg/kg ([7]; 5 mg/kg): shows better effects than Aricept 0.75 mg/kg
exploratory activities of the rats ([7]; D 2.5 and 5 mg/kg, Aricept 0.75 mg/kg, day 7): effective in improving the exploratory activities of the rats
reduction of the level of Aβ1-40 in the medium in comparison with the Vehicle control group [1]: about 47.44±16.62%
acetylcholinesterase activities in the brain cortex and hippocampus (acetylcholinesterase): reverse the increase in acetylcholinesterase activities
passive avoidance response, compared with Aricept 0.75 mg/kg ([8]; 2.5 mg/kg): shows equivalent effect with Aricept 0.75 mg/kg
passive avoidance response, compared with Aricept 0.75 mg/kg ([8]; 5 mg/kg): shows better effects than Aricept 0.75 mg/kg
passive avoidance learning impairment (step-through latency) [8, 9]: reverse the passive avoidance learning impairment

C[C@@H]1O[C@@H](O[C@@H]2[C@@H](O)[C@H](OCCc3ccc(O)c(O)c3)O[C@H](CO[C@@H]3O[C@H](CO)[C@@H](O)[C@H](O)[C@H]3O)[C@H]2OC(=O)/C=C/c2ccc(O)c(O)c2)[C@H](O)[C@H](O)[C@H]1O [Test sample B, Echinacoside, reference compound]
activity on inhibiting Aβ1-42 oligomerization (in words) (Human Aβ1-42): possess activities on inhibiting Aβ1-42 oligomerization
